Laboratory results as given in patent US12171756B2, “NLRP3 modulators” (Innate Tumor Immunity, Inc., priority 2017, dated 2024).
Where two headings read alike, the source gives them in different places.

How the values were obtained:
human TLR7 = biological target: T1, human TLR7 (Homo sapiens, UniProt Q9NYK1); experiment: In vitro human TLR7 binding reporter assay (HEK-Blue, NF-kB/AP1-inducible SEAP); assay type: cell-based; conditions: HEK-Blue human TLR7 SEAP reporter cells; activity range classes; read-out: TLR7 Agonist EC50
T1 construct: host or cells: human HEK-Blue cells (HEK293-derived) co-expressing TLR7 and an NF-kB/AP1-inducible SEAP reporter
T1 sequence (Q9NYK1 27-1049): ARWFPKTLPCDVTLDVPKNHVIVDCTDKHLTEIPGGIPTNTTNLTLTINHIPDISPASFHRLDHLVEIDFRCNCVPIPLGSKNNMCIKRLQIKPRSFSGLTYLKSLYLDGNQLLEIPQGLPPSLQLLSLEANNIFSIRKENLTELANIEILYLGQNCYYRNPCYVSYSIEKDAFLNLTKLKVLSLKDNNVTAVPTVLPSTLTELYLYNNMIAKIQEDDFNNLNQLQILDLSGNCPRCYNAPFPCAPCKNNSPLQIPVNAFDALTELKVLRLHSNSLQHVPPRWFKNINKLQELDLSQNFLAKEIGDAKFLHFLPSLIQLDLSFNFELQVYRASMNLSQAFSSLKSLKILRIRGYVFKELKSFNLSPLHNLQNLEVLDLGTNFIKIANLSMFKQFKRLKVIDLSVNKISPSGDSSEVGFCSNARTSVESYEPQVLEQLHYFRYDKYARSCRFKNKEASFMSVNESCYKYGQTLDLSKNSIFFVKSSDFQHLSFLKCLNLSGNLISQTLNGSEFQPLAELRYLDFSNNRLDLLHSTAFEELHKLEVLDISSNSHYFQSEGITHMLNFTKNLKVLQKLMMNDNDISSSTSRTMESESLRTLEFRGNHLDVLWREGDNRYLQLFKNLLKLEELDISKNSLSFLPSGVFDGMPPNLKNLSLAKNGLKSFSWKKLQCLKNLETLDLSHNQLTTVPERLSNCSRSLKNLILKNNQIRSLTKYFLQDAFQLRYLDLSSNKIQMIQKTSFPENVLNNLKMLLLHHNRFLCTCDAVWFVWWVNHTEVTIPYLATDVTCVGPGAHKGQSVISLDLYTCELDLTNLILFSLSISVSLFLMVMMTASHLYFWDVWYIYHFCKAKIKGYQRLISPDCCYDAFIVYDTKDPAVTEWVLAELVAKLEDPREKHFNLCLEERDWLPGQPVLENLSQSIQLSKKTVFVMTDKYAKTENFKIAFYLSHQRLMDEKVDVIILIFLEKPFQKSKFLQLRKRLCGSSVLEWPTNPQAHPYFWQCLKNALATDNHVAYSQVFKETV
Method in brief: (§1)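 EC50s come from NF-kB/AP1-driven SEAP secretion in HEK-Blue cells expressing TLR7 or TLR8, measured with Quanti-Blue after an 18 h compound incubation. Maximal response is defined by a 50 μM reference standard.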

human TLR8 = biological target: T2, human TLR8 (Homo sapiens, UniProt Q9NR97); experiment: In vitro human TLR8 binding reporter assay (HEK-Blue, NF-kB/AP1-inducible SEAP); assay type: cell-based; conditions: HEK-Blue human TLR8 SEAP reporter cells; activity range classes; read-out: TLR8 Agonist EC50
T2 construct: host or cells: human HEK-Blue cells (HEK293-derived) co-expressing TLR8 and an NF-kB/AP1-inducible SEAP reporter
T2 sequence (Q9NR97 27-1041): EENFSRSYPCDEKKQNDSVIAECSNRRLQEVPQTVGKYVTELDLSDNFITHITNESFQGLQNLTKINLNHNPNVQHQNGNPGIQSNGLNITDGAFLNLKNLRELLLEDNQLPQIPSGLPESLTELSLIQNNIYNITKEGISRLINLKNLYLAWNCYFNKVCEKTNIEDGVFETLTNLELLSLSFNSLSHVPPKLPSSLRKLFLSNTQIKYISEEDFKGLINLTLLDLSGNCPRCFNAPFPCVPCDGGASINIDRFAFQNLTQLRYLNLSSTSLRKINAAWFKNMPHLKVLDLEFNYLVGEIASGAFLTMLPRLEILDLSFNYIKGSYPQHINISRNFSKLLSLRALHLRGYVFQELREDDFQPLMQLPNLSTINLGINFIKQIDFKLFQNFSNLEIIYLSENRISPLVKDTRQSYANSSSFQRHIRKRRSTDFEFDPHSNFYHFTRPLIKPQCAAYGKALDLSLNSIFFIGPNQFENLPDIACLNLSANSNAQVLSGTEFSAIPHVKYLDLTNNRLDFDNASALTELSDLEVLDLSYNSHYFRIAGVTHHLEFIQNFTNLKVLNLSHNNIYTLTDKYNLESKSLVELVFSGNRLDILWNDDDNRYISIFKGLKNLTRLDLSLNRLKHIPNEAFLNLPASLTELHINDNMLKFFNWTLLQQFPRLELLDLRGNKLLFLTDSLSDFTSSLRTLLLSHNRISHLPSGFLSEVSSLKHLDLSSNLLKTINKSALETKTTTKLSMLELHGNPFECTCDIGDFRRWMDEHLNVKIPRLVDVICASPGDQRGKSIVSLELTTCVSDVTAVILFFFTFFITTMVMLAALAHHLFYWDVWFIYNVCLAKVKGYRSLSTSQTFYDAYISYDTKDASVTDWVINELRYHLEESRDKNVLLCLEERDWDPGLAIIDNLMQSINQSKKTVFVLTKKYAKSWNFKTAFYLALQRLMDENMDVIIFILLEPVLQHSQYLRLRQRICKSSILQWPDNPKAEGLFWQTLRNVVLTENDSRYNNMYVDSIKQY
Method in brief: as §1

[1] = tested on: IL-1β production in PMA-differentiated THP-1 cells; experiment: Measurement of IL-1β production in PMA-differentiated THP-1 cells (ELISA, 4 hours); assay type: cell-based, human; conditions: assayed using one or more of the described procedures, read-out: NLRP3 hIL1B IC50
Method in brief: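 THP-1 cells differentiated with PMA (10 μg/ml, 24 h), replated at 1×10^6 cells/ml in RPMI with 2% FBS and exposed to compounds (e.g. 0.1–100 μM, 1% DMSO final) for 4 hours. IL-1β in cell-free supernatant quantified by ELISA against vehicle control.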

[2] = Homo sapiens, THP-1, human IL-1β production

EC50 (human TLR7) [µM] | EC50 (human TLR8) [µM] | IC50 [1, 2] [µM] | IC50 ([1]; human IL-1β production) [µM] | SMILES
> 100 | > 100 | 0.06 |  | N#CCCCNc1cc(N)nc2cc(-c3ccn[nH]3)ccc12 [Compound 222]
> 100 | > 100 | 1.35 |  | CC(C)(CNc1cc(N)nc2cc(-c3ccn[nH]3)ccc12)S(C)(=O)=O [Compound 223]
> 100 | > 100 | 0.22 |  | Nc1cc(NCCc2ncn[nH]2)c2ccc(-c3ccn[nH]3)cc2n1 [Compound 224]
> 100 | > 100 | 0.13 |  | Nc1cc(NCCc2cnc[nH]2)c2ccc(-c3ccn[nH]3)cc2n1 [Compound 225]
> 100 | > 100 | 0.73 |  | Nc1cc(NCc2c[nH]nn2)c2ccc(-c3ccn[nH]3)cc2n1 [Compound 226]
> 100 | > 100 | 0.33 |  | Nc1cc(NCc2nc[nH]n2)c2ccc(-c3ccn[nH]3)cc2n1 [Compound 227]
> 100 | > 100 | 0.16 |  | Nc1cc(NCc2cn[nH]c2)c2ccc(-c3ccn[nH]3)cc2n1 [Compound 228]
> 100 | > 100 | 0.09 |  | Cn1ccc(CNc2cc(N)nc3cc(-c4ccn[nH]4)ccc23)n1 [Compound 229]
> 100 | > 100 | 0.54 |  | Nc1cc(NCc2cnco2)c2ccc(-c3ccn[nH]3)cc2n1 [Compound 230]
> 100 | > 100 | 1.27 |  | Nc1cc(NCCCn2cncn2)c2ccc(-c3ccn[nH]3)cc2n1 [Compound 231]
> 100 | > 100 | 0.23 |  | Nc1cc(N[C@@H]2CCC[C@@H]2O)c2ccc(-c3ccn[nH]3)cc2n1 [Compound 232]
> 100 | > 100 | 0.09 |  | Nc1cc(N[C@H]2C[C@H](O)C2)c2ccc(-c3ccn[nH]3)cc2n1 [Compound 233]
> 100 | > 100 | 0.23 |  | Nc1cc(N[C@H]2C[C@@H](O)C2)c2ccc(-c3ccn[nH]3)cc2n1 [Compound 234]
> 100 | > 100 | 0.86 |  | Nc1cc(N[C@H]2CCC[C@H]2O)c2ccc(-c3ccn[nH]3)cc2n1 [Compound 235]
> 100 | > 100 | 2.65 |  | Cc1cn(CCNc2cc(N)nc3cc(-c4ccn[nH]4)ccc23)nn1 [Compound 236]
> 100 | > 100 | 2.57 |  | Cc1nc[nH]c1CNc1cc(N)nc2cc(-c3ccn[nH]3)ccc12 [Compound 237]
> 100 | > 100 | 1.49 |  | Nc1cc(NCCCc2cccnc2)c2ccc(-c3ccn[nH]3)cc2n1 [Compound 238]
> 100 | > 100 | 4.83 |  | Cc1ncsc1CCNc1cc(N)nc2cc(-c3ccn[nH]3)ccc12 [Compound 239]
> 100 | > 100 | 0.24 |  | Nc1cc(NCc2ncc[nH]2)c2ccc(-c3ccn[nH]3)cc2n1 [Compound 240]
> 100 | > 100 | 2.25 |  | Nc1cc(NCCCn2ccnc2)c2ccc(-c3ccn[nH]3)cc2n1 [Compound 241]
> 100 | > 100 | 2.35 |  | Cn1nccc1CNc1cc(N)nc2cc(-c3ccn[nH]3)ccc12 [Compound 242]
> 100 | > 100 | 1.02 |  | Cn1cnc(CNc2cc(N)nc3cc(-c4ccn[nH]4)ccc23)c1 [Compound 243]
> 100 | > 100 | 0.35 |  | Nc1cc(NCc2cncs2)c2ccc(-c3ccn[nH]3)cc2n1 [Compound 244]
> 100 | > 100 | 1.34 |  | Nc1cc(N[C@H]2CC[C@@H](O)C2)c2ccc(-c3ccn[nH]3)cc2n1 [Compound 245]
> 100 | > 100 | 0.17 |  | Nc1cc(N[C@H]2CC[C@H](O)C2)c2ccc(-c3ccn[nH]3)cc2n1 [Compound 246]
> 100 | > 100 | 0.48 |  | Nc1cc(N[C@@H]2CC[C@H](O)C2)c2ccc(-c3ccn[nH]3)cc2n1 [Compound 247]
> 100 | > 100 | 0.33 |  | Nc1cc(N[C@@H]2CC[C@@H](O)C2)c2ccc(-c3ccn[nH]3)cc2n1 [Compound 248]
> 100 | > 100 | 0.05 |  | Nc1cc(NCc2ncco2)c2ccc(-c3ccn[nH]3)cc2n1 [Compound 249]
> 100 | > 100 |  | 1.72 | Nc1cc(N[C@H]2CCCC[C@H]2O)c2ccc(-c3ccn[nH]3)cc2n1 [Compound 250]
> 100 | > 100 | 0.37 |  | Nc1cc(N[C@@H]2CCCC[C@@H]2O)c2ccc(-c3ccn[nH]3)cc2n1 [Compound 251]
